Test results from PMC12595434, “Development of retinoid nuclear receptor pathway antagonists through targeting aldehyde dehydrogenase 1A3” (iScience, 2025).

What was measured:
M1 = M1 (Homo sapiens, UniProt P11229); test: biochemical; type: binding; conditions: read-out: Inhibition by MBE1 at 10 μM (%)
5HT1a = 5HT1a (Homo sapiens, UniProt P08908); test: Off-target profiling panel; type: binding; conditions: read-out: Inhibition by MBE1 at 10 μM (%)
Eta antagonist = Eta antagonist (Homo sapiens, UniProt P25101); test: Off-target profiling panel; type: cell-based; conditions: read-out: Inhibition by MBE1 at 10 μM (%)
COX2 = COX2 (Homo sapiens, UniProt P35354); test: Off-target profiling panel; type: biochemical; conditions: read-out: Inhibition by MBE1 at 10 μM (%)
Alpha2A = Alpha2A (Homo sapiens, UniProt P08913); test: Off-target profiling panel; type: binding; conditions: read-out: Inhibition by MBE1 at 10 μM (%)
hERG = hERG (Homo sapiens, UniProt Q12809); test: Off-target profiling panel; type: binding; conditions: read-out: Inhibition by MBE1 at 10 μM (%)
H2 = H2 (Homo sapiens, UniProt P25021); test: Off-target profiling panel; type: binding; conditions: read-out: Inhibition by MBE1 at 10 μM (%)
mouse T cells = test: T cell proliferation (CFSE) co-culture with myeloid cells; type: cell-based; conditions: 1 μM MBE1 treatment of B16F10-ALDH1A3 cells
Procedure: Next, to simulate paracrine signaling from tumor cells, we collected conditioned media from isogenic B16F10 cells stably expressing either vector or ALDH1A3 and added the media to the myeloid cells prior to culturing with T cells.
Bone marrow derived monocytes were enriched using MACS isolation (#130-100-629) and >95% purity of monocytes was confirmed by staining with Ly6C-PE (Clone# HK1.4; Biolegend 128008). Monocytes were cultured in RPMI1640 at 1M/well in a 6-well plate. 20 ng/ml mGM-CSF (peprotech) and 20 ng/ml mIL-4 (peprotech) were used to differentiate monocytes to monocyte derived dendritic cells (MoDCs). 100 nM atRA or 0.1% DMSO was used to treat the cells. 3 days later, floating cells were collected and 20,000 of them were cocultured with 100,000 CD4^+ T cell labeled with CFSE (Thermo fisher scientific) at 1:5000. T cell proliferation was examined ∼72hrs after the coculture. When conditioned medium was used in differentiating MoDCs, conditioned medium was first collected from 500,000 B16-vector control cells vs. B16-mALDH1A3 cells with or without 1 μM MBE1 treatment cultured in 1.5 mL medium in a 6-well plate for ∼24hrs. Fresh RPMI1640 and conditioned medium were mixed 1:1 before applying to MoDC culture. In parallel, fresh RPMI1640 medium alone is used as a control. […]

NPTN = test: Cellular thermal shift assay (CETSA) in A375 cells; type: cell-based, human; conditions: 100 nM, 1h at 37°C
Procedure: CETSA was performed according to protocols described before.[85] Briefly, 6 × 10cm dishes of A375 cells were collected and treated with 100 nM MBE1 or 0.1% DMSO for 1h at 37°C. Afterward, cells were pelleted through centrifugation at 300g for 5 min. Cells were then washed with ice-cold PBS and resuspended in 800 μL of PBS. Cell suspension was aliquoted to 7xPCR tubes with 100 μL each and subjected to thermal denaturation at 46.3, 48.6, 52.2, 56.5, 60.1, 62.5, 64.0°C for 3 min. The resulting sample was snap frozen in liquid nitrogen followed by incubation at room temperature until fully thawed. This procedure was performed twice followed by brief vortexing and mixing to release soluble proteins from the cells. Samples were then transferred to 1.5 mL Eppendorf tubes and centrifuged at 20,000g for 20 min at 4°C, 90 μL of the resulting supernatant was collected into another new 1.5 mL Eppendorf tube and subjected to protein analysis by western blot (WB). NPTN (proteintech #28022-1-AP) and ALDH1A3 (abcam #ab129815) were used to detect target proteins while GelCode Blue Stain Reagent (Thermofisher scientific #24590) was used to stain for total proteins loaded in the WB analysis.

PDE4D2 = PDE4D2 (Homo sapiens, UniProt Q08499); test: Off-target profiling panel; type: biochemical; conditions: read-out: Inhibition by MBE1 at 10 μM (%)
NMDA = test: Off-target profiling panel; type: binding; conditions: 10 μM
ALDH1L2 = target: T1, ALDH1L2 (Homo sapiens, UniProt Q3SY69); test: Recombinant enzyme activity assay; type: biochemical; conditions: selectivity profiling
T1 construct: made in house; host or cells: BL21-DE3 E. coli

ALDH1L1 = target: T2, ALDH1L1 (Homo sapiens, UniProt O75891); test: Recombinant enzyme activity assay; type: biochemical; conditions: selectivity profiling
T2 construct: made in house; host or cells: BL21-DE3 E. coli

ALDH3A1 = target: T3, ALDH3A1 (Homo sapiens, UniProt P30838); test: Recombinant enzyme activity assay; type: biochemical; conditions: selectivity profiling
T3 construct: made in house; host or cells: BL21-DE3 E. coli

purified human ALDH1A3 = target: T4, purified human ALDH1A3 (Homo sapiens, UniProt P47895); test: Nanoscale differential scanning fluorimetry (DSF); type: binding; conditions: 10 and 100 μM
T4 construct: made in house; host or cells: BL21-DE3 E. coli

Chain of M1 (P11229 whole entry): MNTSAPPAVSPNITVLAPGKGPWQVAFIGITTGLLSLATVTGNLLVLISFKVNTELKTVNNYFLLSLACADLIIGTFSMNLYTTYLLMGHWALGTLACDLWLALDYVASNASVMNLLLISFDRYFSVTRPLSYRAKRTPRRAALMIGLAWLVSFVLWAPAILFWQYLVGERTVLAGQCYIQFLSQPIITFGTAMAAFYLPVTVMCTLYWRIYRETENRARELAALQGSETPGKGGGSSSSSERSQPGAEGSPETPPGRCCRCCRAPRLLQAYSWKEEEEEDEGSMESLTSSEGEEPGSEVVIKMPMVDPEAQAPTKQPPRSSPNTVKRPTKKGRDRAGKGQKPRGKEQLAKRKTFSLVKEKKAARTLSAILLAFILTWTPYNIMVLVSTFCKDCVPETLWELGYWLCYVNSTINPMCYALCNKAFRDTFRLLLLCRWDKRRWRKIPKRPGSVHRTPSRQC
T1 sequence (Q3SY69 whole entry): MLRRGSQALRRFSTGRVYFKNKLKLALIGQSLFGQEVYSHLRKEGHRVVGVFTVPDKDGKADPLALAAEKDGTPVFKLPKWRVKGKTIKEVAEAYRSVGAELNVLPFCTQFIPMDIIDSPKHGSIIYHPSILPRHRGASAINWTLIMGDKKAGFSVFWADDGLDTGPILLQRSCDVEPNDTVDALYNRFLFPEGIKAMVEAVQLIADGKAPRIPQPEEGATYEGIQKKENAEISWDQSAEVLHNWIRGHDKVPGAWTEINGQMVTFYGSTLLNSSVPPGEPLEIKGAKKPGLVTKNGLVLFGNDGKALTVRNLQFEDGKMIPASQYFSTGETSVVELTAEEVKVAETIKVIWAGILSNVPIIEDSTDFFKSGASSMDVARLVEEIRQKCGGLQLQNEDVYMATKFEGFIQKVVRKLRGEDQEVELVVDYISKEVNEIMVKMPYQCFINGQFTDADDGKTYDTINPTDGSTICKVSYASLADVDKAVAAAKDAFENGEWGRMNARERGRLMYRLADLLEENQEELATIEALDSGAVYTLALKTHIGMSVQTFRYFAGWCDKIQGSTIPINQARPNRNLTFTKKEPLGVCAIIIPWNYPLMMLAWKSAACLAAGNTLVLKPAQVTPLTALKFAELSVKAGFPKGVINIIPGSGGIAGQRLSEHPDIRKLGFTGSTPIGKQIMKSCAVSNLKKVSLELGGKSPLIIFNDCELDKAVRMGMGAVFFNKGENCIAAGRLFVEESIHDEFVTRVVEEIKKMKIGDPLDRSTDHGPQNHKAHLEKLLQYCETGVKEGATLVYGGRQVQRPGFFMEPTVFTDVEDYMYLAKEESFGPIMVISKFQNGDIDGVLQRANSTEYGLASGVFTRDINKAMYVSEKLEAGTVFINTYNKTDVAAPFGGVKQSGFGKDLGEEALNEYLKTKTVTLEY
Chain of H2 (P25021 whole entry): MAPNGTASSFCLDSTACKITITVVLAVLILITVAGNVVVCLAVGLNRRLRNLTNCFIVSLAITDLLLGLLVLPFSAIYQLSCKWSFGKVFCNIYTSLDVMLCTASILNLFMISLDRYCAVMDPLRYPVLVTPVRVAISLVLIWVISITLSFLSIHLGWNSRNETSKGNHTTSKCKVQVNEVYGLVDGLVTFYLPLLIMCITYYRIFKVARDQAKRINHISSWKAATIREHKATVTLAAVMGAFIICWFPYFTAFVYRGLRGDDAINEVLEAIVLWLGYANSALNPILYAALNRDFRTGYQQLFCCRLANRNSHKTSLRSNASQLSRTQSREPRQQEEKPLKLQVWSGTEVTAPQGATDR
Chain of Eta antagonist (P25101 21-427): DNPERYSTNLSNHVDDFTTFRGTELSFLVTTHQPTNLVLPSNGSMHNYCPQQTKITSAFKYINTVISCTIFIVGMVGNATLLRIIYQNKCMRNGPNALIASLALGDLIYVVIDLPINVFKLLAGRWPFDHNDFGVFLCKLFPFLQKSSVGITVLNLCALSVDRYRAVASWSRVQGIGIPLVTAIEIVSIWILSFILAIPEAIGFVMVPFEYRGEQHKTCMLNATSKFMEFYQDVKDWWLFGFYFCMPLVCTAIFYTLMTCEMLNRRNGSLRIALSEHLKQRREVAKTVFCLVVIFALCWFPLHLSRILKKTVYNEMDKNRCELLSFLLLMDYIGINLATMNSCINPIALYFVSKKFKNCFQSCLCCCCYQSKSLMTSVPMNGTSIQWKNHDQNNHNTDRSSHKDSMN
Chain of Alpha2A (P08913 whole entry): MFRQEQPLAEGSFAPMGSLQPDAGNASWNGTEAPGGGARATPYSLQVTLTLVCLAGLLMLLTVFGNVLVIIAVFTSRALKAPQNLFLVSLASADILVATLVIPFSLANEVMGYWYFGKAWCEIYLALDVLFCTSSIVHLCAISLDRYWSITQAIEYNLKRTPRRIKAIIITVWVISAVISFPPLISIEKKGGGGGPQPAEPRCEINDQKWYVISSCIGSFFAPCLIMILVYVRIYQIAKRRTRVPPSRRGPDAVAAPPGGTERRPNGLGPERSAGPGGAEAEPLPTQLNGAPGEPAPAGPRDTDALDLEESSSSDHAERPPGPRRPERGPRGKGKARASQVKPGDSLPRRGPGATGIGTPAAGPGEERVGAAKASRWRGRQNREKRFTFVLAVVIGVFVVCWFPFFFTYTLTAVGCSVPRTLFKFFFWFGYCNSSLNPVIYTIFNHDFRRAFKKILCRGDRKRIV
T3 sequence (P30838 whole entry): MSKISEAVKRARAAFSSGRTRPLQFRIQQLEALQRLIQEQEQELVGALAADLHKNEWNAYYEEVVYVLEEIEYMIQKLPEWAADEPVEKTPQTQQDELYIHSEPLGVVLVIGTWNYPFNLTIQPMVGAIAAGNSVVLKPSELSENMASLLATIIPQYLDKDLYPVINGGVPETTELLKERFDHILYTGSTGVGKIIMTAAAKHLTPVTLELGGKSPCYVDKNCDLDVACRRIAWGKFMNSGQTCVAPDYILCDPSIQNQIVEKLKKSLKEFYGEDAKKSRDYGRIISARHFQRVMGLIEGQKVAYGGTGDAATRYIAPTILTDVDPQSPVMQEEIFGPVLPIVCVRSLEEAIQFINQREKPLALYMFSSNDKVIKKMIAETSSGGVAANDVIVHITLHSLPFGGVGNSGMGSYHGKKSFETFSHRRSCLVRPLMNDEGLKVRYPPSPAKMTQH
Chain of hERG (Q12809 whole entry): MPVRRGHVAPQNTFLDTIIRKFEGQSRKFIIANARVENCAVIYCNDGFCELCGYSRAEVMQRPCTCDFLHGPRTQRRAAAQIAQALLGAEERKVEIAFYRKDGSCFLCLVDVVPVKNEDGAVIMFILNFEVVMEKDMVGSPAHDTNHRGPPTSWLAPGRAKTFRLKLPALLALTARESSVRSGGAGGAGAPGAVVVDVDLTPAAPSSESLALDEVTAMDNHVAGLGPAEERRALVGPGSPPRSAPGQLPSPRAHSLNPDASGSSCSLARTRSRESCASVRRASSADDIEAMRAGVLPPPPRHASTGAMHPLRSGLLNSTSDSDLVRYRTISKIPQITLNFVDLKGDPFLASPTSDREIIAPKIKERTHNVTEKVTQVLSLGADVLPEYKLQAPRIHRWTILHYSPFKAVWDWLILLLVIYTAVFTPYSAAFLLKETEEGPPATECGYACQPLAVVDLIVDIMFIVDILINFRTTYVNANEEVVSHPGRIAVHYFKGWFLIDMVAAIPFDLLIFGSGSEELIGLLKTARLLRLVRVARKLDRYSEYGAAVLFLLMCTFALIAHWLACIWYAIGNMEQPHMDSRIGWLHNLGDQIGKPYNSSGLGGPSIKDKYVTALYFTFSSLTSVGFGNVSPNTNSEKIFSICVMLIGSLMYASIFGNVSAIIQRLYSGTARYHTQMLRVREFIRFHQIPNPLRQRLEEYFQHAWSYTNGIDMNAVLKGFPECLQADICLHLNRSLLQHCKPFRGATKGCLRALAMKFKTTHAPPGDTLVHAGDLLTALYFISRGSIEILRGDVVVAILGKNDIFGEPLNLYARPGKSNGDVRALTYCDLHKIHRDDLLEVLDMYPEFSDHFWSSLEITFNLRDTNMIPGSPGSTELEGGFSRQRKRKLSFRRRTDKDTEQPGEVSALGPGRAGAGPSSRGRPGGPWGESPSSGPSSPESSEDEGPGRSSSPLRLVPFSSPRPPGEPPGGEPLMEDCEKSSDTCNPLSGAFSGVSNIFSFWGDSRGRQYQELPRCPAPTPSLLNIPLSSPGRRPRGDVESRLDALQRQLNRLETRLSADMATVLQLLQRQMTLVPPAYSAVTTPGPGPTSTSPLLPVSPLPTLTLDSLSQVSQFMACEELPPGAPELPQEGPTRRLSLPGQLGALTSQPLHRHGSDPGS
Chain of COX2 (P35354 18-604): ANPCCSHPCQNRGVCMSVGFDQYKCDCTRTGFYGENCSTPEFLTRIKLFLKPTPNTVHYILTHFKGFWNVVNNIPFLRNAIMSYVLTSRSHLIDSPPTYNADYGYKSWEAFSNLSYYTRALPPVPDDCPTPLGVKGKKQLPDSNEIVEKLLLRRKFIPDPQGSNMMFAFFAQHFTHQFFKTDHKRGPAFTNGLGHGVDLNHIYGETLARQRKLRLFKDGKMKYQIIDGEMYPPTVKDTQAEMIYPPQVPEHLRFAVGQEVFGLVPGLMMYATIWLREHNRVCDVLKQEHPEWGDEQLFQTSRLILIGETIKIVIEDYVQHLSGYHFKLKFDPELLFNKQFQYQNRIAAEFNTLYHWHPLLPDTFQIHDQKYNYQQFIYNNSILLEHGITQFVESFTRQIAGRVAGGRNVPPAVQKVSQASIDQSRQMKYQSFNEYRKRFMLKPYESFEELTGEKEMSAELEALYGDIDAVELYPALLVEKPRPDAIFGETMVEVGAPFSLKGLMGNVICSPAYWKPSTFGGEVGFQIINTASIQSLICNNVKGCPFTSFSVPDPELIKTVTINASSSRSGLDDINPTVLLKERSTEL

Structure (SMILES)	inhibition at 10 µM (M1)	inhibition at 10 µM (5HT1a)	inhibition at 10 µM (Eta antagonist)	inhibition at 10 µM (COX2)	inhibition at 10 µM (Alpha2A)	inhibition at 10 µM (hERG)	inhibition at 10 µM (H2)	T cell proliferation block by B16F10-ALDH1A3 conditioned media (in words) (mouse T cells)	stabilization of NPTN in CETSA (in words) (NPTN)	inhibition at 10 µM (PDE4D2)	Inhibition by MBE1 at 10 μM (%) (NMDA)	inhibitory activity against ALDH1L2 (in words) (ALDH1L2)	inhibitory activity against ALDH1L1 (in words) (ALDH1L1)	inhibitory activity against ALDH3A1 (in words) (ALDH3A1)	thermal stabilization of purified ALDH1A3 (purified human ALDH1A3)
CCc1cnccc1C(=O)Nc1cc2c(cc1F)NC(=O)CC2 [MBE1, 3-ethyl-N-(7-fluoro-2-oxo-3,4-dihydro-1H-quinolin-6-yl)pyridine-4-carboxamide]	-7.68%	3.78%	4.57%	-1.05%	-1.15%	-28.1%	4.29%	proliferation block disappeared	not stabilized	11.8%	−13.59%	–	–	–	–
CCc1ccccc1C(=O)Nc1cc2c(cc1F)NC(=O)CC2 [MBE1.5, 2-ethyl-N-(7-fluoro-2-oxo-3,4-dihydro-1H-quinolin-6-yl)benzamide]	–	–	–	–	–	–	–	–	–	–	–	no inhibition	no inhibition	no inhibition	> 8.5 °C
